Like-named read-outs stand apart in the source and are kept apart here.
Experiments:
[1] = molecular target: T1, PfA-M17 (Plasmodium falciparum, UniProt Q8IL11); experiment: Secondary screening against individual enzyme; type: biochemical; conditions: 100 μM compound; for PfA-M17 activity, single dose secondary screen: n = 1
T1 construct: made in house; host or cells: Escherichia coli
T1 sequence (Q8IL11 84-605 limits assumed): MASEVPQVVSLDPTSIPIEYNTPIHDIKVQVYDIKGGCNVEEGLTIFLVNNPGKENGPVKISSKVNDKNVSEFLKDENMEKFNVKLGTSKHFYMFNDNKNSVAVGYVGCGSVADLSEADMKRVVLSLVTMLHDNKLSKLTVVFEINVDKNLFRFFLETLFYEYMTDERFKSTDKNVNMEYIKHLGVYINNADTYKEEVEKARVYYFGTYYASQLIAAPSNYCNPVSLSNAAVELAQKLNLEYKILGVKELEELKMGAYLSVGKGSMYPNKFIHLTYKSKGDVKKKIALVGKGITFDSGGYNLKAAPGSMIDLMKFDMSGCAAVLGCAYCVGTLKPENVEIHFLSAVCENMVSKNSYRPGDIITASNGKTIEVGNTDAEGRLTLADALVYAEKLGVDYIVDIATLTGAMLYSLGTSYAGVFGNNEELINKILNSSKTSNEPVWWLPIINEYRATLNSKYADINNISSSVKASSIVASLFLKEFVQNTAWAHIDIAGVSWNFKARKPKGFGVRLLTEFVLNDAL
Protocol: (§1) Aminopeptidase activity of each individual enzyme in the presence of a single MMV compound (100 μM) was determined using Leu-Mec for both PfA-M1 (15 nM) and PfA-M17 (80 nM) or Glu-pNA for PfM18AAP (125 nM). Reactions were carried out in 96-well microtitre plates (200 μl total volume) in 50 mM Tris-HCl pH 8.0, 2 mM CoCl2 at 37°C. Following a 10 min incubation (enzyme and compound) at 37°C, reactions were initiated by addition of enzyme specific substrate. Progress curves were monitored using a FLUOstar Omega multimode reader (BMG LabTech) for 1.5 h at 37°C. As activity references, individual enzyme 'no compound' controls and 'positive inhibitor' controls were included in each 96 well plate assay. We applied a cut-off of < 10% activity in the presence of 100 μM compound for selection to the next phase. Compounds that were selected to proceed were then used in further assays to obtain n = 3.

[2] = molecular target: T2, PfA-M1 (Plasmodium falciparum, UniProt O96935); experiment: Secondary screening against individual enzyme; type: biochemical; conditions: 100 μM compound; for PfA-M1 activity, single dose secondary screen: n = 1; for PfA-M1 activity retained in the presence of compound: n = 3, of total enzyme activity
T2 construct: made in house; host or cells: Escherichia coli
T2 sequence (O96935 195-1085 limits assumed): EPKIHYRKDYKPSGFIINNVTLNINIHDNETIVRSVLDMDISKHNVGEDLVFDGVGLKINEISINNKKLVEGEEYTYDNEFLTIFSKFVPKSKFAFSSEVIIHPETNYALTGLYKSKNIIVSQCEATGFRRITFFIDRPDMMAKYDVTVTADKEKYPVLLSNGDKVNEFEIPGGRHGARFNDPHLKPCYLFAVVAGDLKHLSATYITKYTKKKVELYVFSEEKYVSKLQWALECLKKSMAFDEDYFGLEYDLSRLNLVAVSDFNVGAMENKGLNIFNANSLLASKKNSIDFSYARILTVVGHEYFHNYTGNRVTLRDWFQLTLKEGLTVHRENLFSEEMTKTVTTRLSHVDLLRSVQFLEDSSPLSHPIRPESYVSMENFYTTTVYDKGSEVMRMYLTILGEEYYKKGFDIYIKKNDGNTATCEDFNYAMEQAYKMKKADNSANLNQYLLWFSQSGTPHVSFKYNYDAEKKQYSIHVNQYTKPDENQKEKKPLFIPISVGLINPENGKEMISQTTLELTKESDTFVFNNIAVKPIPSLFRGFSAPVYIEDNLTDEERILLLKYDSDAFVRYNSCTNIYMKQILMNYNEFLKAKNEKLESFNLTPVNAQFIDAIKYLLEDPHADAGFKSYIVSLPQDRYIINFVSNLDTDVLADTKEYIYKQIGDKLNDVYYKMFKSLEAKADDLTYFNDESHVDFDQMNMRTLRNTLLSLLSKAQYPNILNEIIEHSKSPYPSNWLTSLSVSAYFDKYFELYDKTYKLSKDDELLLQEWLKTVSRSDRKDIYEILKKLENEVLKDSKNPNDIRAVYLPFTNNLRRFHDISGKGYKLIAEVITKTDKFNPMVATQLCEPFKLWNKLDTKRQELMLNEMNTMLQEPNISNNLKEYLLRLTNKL
Protocol: as §1

[3] = tested on: PfA-M1 and/or PfA-M17; experiment: Multiplex primary screen, fluorogenic substrate Leu-Mec; type: biochemical, Plasmodium falciparum; conditions: 100 μM compound, multiplex assay
Protocol: A multiplex enzyme assay was developed to complete the primary screen of 400 compounds that were provided to us by MMV and SCYNEXIS. Combined PfMAP (15 nM PfA-M1; 80 nM PfA-M17 and 125 nM PfM18AAP) aminopeptidase activity in the presence of a single MMV compound (100 μM solubilized in 100% dimethyl sulfoxide, DMSO, final DMSO concentration in assay = 10%) was determined by simultaneous measurement of the release of the fluorogenic leaving group, -NHMec, from L-Leucine-7-amido-4-methylcoumarin-HCl (Leu-Mec) (Sigma) as well as the hydrolysis of p-nitroanilide from the chromogenic substrate, L-Glutamic acid p-nitroanilide (Glu-pNA) (Sigma). The fluorogenic substrate records the combined activity of PfA-M1 and PfA-M17 while the p-nitroanilide substrate is specific for PfM18AAP. Reactions were carried out in 96-well microtitre plates (200 μL total volume) in 50 mM Tris-HCl pH 8.0, 2 mM CoCl2 at 37°C. Following a 10 min incubation (multi-enzyme and single compound) at 37°C, reactions were initiated by addition of both fluorogenic and chromagenic substrates. Progress curves were monitored using a FLUOstar Omega multimode reader (BMG LabTech) for 1.5 h at 37°C. As activity references, individual enzyme and multiple enzyme 'no compound' controls and 'positive inhibitor' controls (with 10% DMSO) were included in each 96 well plate assay.

[4] = molecular target: T2, PfA-M1; experiment: Determination of Ki values (Dixon plots, H-Leu-NHMec); type: biochemical
Protocol: (§2) MMV020750 was purchased from InterBioScreen (catalog number STOCK2S-51608) and MMV666023 was purchased from ChemBridge (catalog number 5566248). The MMV020750 derivatives 1, 2 and 3 were purchased from Ambinter (catalog numbers AMB425981, AMB2311364 and AMB8506251 respectively). 4-(4,5-Diphenyl-1H-imidazol-2-yl)benzoic acid (4) was purchased from TCI Chemicals, while 4-(4,5-diphenyl-1H-imidazol-2-yl)-N-hydroxybenzamide (5) was prepared from 4 as described (S1 Methods). Aminopeptidase activity of both PfA-M1 and PfA-M17 enzymes was determined by measuring the release of the fluorogenic leaving group, NHMec, from the fluorogenic peptide L-Leucine-7-amido-4-methylcoumarin hydrochloride (H-Leu-NHMec) (Sigma L2145). The assay protocol devised by Stack CM, et al, (J. Biol Chem, 2007) was modified and used, with the reactions were carried out at 37°C and monitored using a spectrofluorometer (BMG FLUOstar) with excitation at 355 nm and emission at 460 nm. Each enzyme was pre-incubated in 50 mM Tris pH 8.0, 2 mM CoCl2; 5% DMSO with each inhibitor for 10 min prior to the addition of substrate. Inhibitor concentration was assayed between 0 and 500 μM final for each compound, and repeated over a narrowed range if necessary. The fluorescence signal was monitored until a final steady state velocity, V, was obtained. The K i values were then evaluated using Dixon plots of 1/V versus inhibitor concentration while the substrate concentration was maintained lower than that of the Km of the enzyme.

[5] = tested on: asexual blood stage of 3D7 Pf; conditions: cited from earlier work
[6] = molecular target: T1, PfA-M17; experiment: Determination of Ki values (Dixon plots, H-Leu-NHMec); type: biochemical; conditions: for Ki: Dixon plot
Protocol: as §2
This was a particular problem with the PfA-M17 enzyme assays where we noted that at higher concentrations of 4, a decrease in fluorescence was observed. We hypothesise that this is a result of PfA-M17 binding to the compound and quenching the intrinsic fluorescence. […] We therefore chose to analyse a reduced concentration range for 4.

[7] = Dixon plot, read-out: Ki PfA-M1
[8] = ref Avery, read-out: EC50 (Avery)
[9] = ref ChEMBL, read-out: EC50 (ChEMBL)

Structure (SMILES)	PfA-M17 activity, single dose secondary screen [1]	PfA-M17 activity retained in the presence of compound ([1]; n = 3)	PfA-M1 activity, single dose secondary screen [2]	PfA-M1 activity retained in the presence of compound [2]	Activity (PfA-M1 and/or PfA-M17) [3]	mode of inhibition of PfA-M1 [4]	Ki ([4]; Dixon plot including the 500 uM values, read-out: Ki (with all values) PfA-M1) [µM]	Ki [4, 7] [µM]	% Pf Inhibition @ 5 μM [5] [%]	EC50 [5, 8] [µM]	EC50 [5, 9] [µM]	mode of inhibition of PfA-M17 [6]	Ki [6] [µM]	selectivity for PfA-M17 over M1 ([6]; from Ki values) [fold]	reduction of PfA-M17 activity ([1]; n = 3) [%]	selectivity for PfA-M1 over M17 ([4]; from Ki values) [fold]	reduction of PfA-M1 activity ([2]; n = 3) [%]
CC(C)C[C@H](NC(=O)[C@@H](O)[C@H](N)Cc1ccccc1)C(=O)O [Bestatin, reference compound]	no neutral aminopeptidase activity is detectable	no neutral aminopeptidase activity is detectable	no neutral aminopeptidase activity is detectable	no neutral aminopeptidase activity is detectable	–	–	–	–	–	–	–	–	–	–	–	–	–
COc1cc(-c2nc(-c3ccccc3)c(-c3ccccc3)[nH]2)cc(OC)c1O [MMV020750]	–	–	–	75%	R	competitive	225	75	97	1.2	0.8	competitive	12	6	95	–	–
O=C(Nc1ccc(-c2nc3ccccc3[nH]2)cc1)c1ccc(Cl)c(Cl)c1 [MMV665840]	false positive	–	false positive	–	R	–	–	–	–	–	–	–	–	–	–	–	–
c1ccc(Cn2c(/N=N/c3c(Nc4ccccc4)ccc4ccccc34)nc3ccccc32)cc1 [MMV666023]	–	–	–	–	R	competitive	–	4.5	96	0.04	2.7	competitive	23	–	70	5	95

— article PMC4336144, “Screening the Medicines for Malaria Venture "Malaria Box" against the Plasmodium falciparum Aminopeptidases, M1, M17 and M18” (PLoS ONE, 2015)
